Where “and” joins values, the source holds several entries; their conditions need not be identical. Identical values can stand only once.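 96-well plates; 48 h exposure; 5 concentrations. Endpoints by linear interpolation between flanking doses. Not reached: highest tested concentration assigned. Definition used: TGI = concentration required for complete inhibition of growth.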
Experiments:
Test in all cases: DTP human tumour cell line panel, 48 h
BT-549 breast = tested on: BT-549 breast
CCRF-CEM leukemia = tested on: CCRF-CEM leukemia
EKVX NSCLC = tested on: EKVX NSCLC
HCC-2998 colon = tested on: HCC-2998 colon
HCT-15 colon = tested on: HCT-15 colon
K-562 leukemia = tested on: K-562 leukemia
LOX IMVI melanoma = tested on: LOX IMVI melanoma
M14 melanoma = tested on: M14 melanoma
MDA-MB-435 = tested on: MDA-MB-435
NCI-H226 lung = tested on: NCI-H226 lung
NCI-H522 lung = tested on: NCI-H522 lung
NCI/ADR-RES ovarian = tested on: NCI/ADR-RES ovarian
OVCAR-4 ovarian = tested on: OVCAR-4 ovarian
RPMI-8226 leukemia = tested on: RPMI-8226 leukemia
RXF 393 renal = tested on: RXF 393 renal
SK-MEL-28 melanoma = tested on: SK-MEL-28 melanoma
SN12C renal = tested on: SN12C renal
IGROV1 ovarian = tested on: IGROV1 ovarian
SNB-75 CNS = tested on: SNB-75 CNS
SR leukemia = tested on: SR leukemia

SMILES | TGI (BT-549 breast) [µM] | TGI (CCRF-CEM leukemia) [µM] | TGI (EKVX NSCLC) [µM] | TGI (HCC-2998 colon) [µM] | TGI (HCT-15 colon) [µM] | TGI (K-562 leukemia) [µM] | TGI (LOX IMVI melanoma) [µM] | TGI (M14 melanoma) [µM] | TGI (MDA-MB-435) [µM] | TGI (NCI-H226 lung) | TGI (NCI-H522 lung) [µM] | TGI (NCI/ADR-RES ovarian) [µM] | TGI (OVCAR-4 ovarian) [µM] | TGI (RPMI-8226 leukemia) [µM] | TGI (RXF 393 renal) [µM] | TGI (SK-MEL-28 melanoma) | TGI (SN12C renal) [µM] | TGI (IGROV1 ovarian) [µM] | TGI (SNB-75 CNS) [µM] | TGI (SR leukemia) [µM]
OC(c1cc(-c2ccc(Cl)cc2)nc2ccccc12)C1CCCCN1 (stereo not given) | 16 | 2.52 | 4.74 | 3.94 | 6.11 | 3.13 | 2.09 | 3.37 | 4.35 | 39 µM | 2.77 | 5.79 | 5.11 | 3.12 | 0.315 | 3.53 µM | 3.54 |  |  | 
N=[N+]=CC(=O)CCC(NC(=O)C(CCC(=O)C=[N+]=N)NC(=O)CCC(N)C(=O)O)C(=O)O (stereo not given) |  | > 100 | > 100 | > 100 | > 100 | > 100 | > 100 |  |  | > 100 µM | > 100 | > 100 | > 100 | > 100 | > 100 | > 100 µM | > 100 | > 100 | > 100 | 
Nc1c(C(=O)Nc2ccc(C3=NCCN3)cc2)cccc1C(=O)Nc1ccc(C2=NCCN2)cc1 |  | > 100 |  | > 100 | > 100 | > 100 | > 100 |  |  | > 100 µM | > 100 | > 100 | > 100 | > 100 | > 100 | > 100 µM | > 100 | > 100 | > 100 | 
C[n+]1ccc(Nc2ccc(NC(=O)c3ccc(Nc4cc[n+](C)c5ccc([N+](=O)[O-])cc45)cc3[N+](=O)[O-])cc2)cc1 |  | > 100 | > 92.6 | > 100 | > 100 | > 77.6 | > 100 | > 100 |  | 99.7 µM and > 100 µM | > 100 | > 100 | > 100 | > 100 | > 100 | 74.1 µM and 62.2 µM | > 100 | > 100 | > 100 | > 100
CC(C)(C)C(=O)CP(=O)(O)O | > 100 | > 100 | > 100 |  | > 100 | > 100 | > 100 | > 100 | > 100 | > 100 µM | > 100 | > 100 | > 100 | > 100 | > 100 | > 100 µM | > 100 | > 100 | > 100 | > 100
Cc1c(Cl)c(S(N)(=O)=O)cc2c1NC=NS2(=O)=O | > 100 | > 100 | > 100 | > 100 | > 100 | > 100 | > 100 | > 100 | > 100 | > 100 µM | > 100 | > 100 | > 100 | > 100 | > 100 | > 100 µM | > 100 | > 100 | > 100 | 
Oc1ccc(Cc2nccc3cc(O)c(O)cc23)cc1O | > 100 | 60.3 | > 100 |  | > 100 | > 100 | > 100 | 78.2 | > 100 | > 100 µM | > 100 | > 100 | > 100 | > 100 | > 100 | > 100 µM | > 100 | > 100 | > 100 | 96.8
O=C(O)NCC1CCCCC1 (tested in a mixture with another compound) | 72.6 | > 100 | > 100 |  | 63.6 | 35.9 | 28.6 | > 100 | 58.1 | 41.2 µM | 28 | 83.8 | > 100 | 9.73 | 45.9 | > 100 µM | 28.1 | 23.3 | 36.6 | 72
C1CSC(=[N+]2CC[N+](=C3SCCS3)CC2)S1 |  | > 100 | > 100 | > 100 | > 100 | > 100 | > 100 | > 100 |  |  | > 100 |  | > 100 | > 100 | > 100 | > 100 µM | > 100 | > 100 | > 100 | > 100
C/C(=N\NC(=S)N1CCN(C)CC1)c1nc2ncccc2[nH]1 | > 100 | > 100 | > 100 | > 100 | > 100 | > 100 | > 100 | > 100 | > 100 | > 100 µM | > 100 | > 100 | > 100 | > 100 |  | > 100 µM | > 100 | > 100 | > 100 | 
C[n+]1c2ccccc2c(NC(CS)C(=O)O)c2ccccc21 (stereo not given) |  |  | > 100 | > 100 | > 100 | > 100 |  | > 100 |  | > 100 µM | 42.3 |  | > 100 | 53.9 | 60.7 |  | > 100 | > 100 | 73.5 | 39.4
Cc1ccc(N=Nc2ccc(N)cc2C)c(S(N)(=O)=O)c1 | > 100 | > 100 | > 100 |  | > 100 | > 100 | > 100 | > 100 |  | > 100 µM | > 100 | > 100 | > 100 | > 100 | > 100 | > 100 µM | > 100 | > 100 | > 100 | > 100
C[N+]1(Cc2ccc(Cl)c(Cl)c2)CCCC1C1CCCN(Cc2ccc(Cl)c(Cl)c2)C1 (stereo not given) | > 100 |  | > 100 | > 100 | > 100 | > 100 | > 100 | > 100 | > 100 |  | > 100 | > 100 | > 100 | > 100 | > 100 | > 100 µM | > 100 | > 100 | > 100 | > 100
Nc1ccc(S(=O)(=O)Nc2ccc(Nc3c4ccccc4nc4ccccc34)cc2)cc1 | 0.981 | > 4.64 | 14.7 | 8.2 | 17.7 | 17 | 1.51 | 17.5 | 53 | 0.851 µM | 3.95 | 19.8 | 17.1 | 4.06 | 13.7 | 20.8 µM | 0.628 | 19.7 | 0.963 | 0.533
C/C=C(\C)C(=O)OC1C(C)=C2C(C1OC(=O)CCCC)C(C)(OC(C)=O)CC(OC(=O)CCCC)C1(O)C2OC(=O)C1(C)O (stereo not given) | > 100 | > 100 | > 100 | > 100 | > 100 | > 100 | 2.08 | 4.53 | > 100 | > 25.8 µM | 7.02 | > 100 | > 100 | > 21.1 | > 100 | > 100 µM | > 100 | > 100 | 48.6 | > 81
O=C(NC1C=Nc2ccc([N+](=O)[O-])cc2NC1=O)c1cc(Cl)cc([N+](=O)[O-])c1 (stereo not given) |  | > 100 | > 100 | > 100 | > 100 | > 100 | > 100 | > 100 |  | > 100 µM | 67.8 |  | > 100 | > 100 | > 100 | > 100 µM | > 100 | > 100 | > 100 | > 100
CC(C)(C)NCC(O)c1ccc(O)c(CO)n1 (stereo not given) | > 100 |  | > 100 | > 100 | > 100 |  | > 100 | > 100 | > 100 | > 100 µM | > 100 | > 100 | > 100 | > 100 | > 100 | > 100 µM | > 100 | > 100 | > 100 | > 100
CN(Cc1cccc2ccccc12)Cc1cccc2ccccc12 | > 100 | 34 | > 100 | 57.9 | > 100 | > 100 | > 100 | 74.3 | > 100 | 86.4 µM | 45.4 | > 100 | > 100 | 50.1 | > 100 | > 100 µM | > 100 | > 100 | > 100 | 90.8
Cc1cc2sc(C)[n+](CCCOS(=O)(=O)[O-])c2cc1C | > 100 |  | > 100 |  | > 100 | > 100 | > 100 | > 100 | > 100 | > 100 µM | > 100 | > 100 | > 100 | > 100 | > 100 | > 100 µM | > 100 | > 100 | > 100 | > 100
COC(=O)c1cc2cc3c(c(O)c2c(=O)o1)O[C@@]1(Oc2c(O)c4c(c(O)c2[C@H]1OC1CC(OC)C(O)C(C)O1)C(=O)C=C(OC)C4=O)[C@H](O)C3 (stereo not given in full) | 4.93 |  | 12.3 |  | > 19.7 | 8.82 |  | > 100 | 7.47 | 17.1 µM | 5.19 | > 100 | 2.89 | 4.44 | 3.25 | 1.91 µM | 12.1 | 7.17 |  | 4.76

From PubChem BioAssay (NCI)
